How the values were obtained:
human STING (WT) [1] = target: T1, human STING (WT) (Homo sapiens (Human), UniProt Q86WV6, H232R); test: Surface plasmon resonance (SPR), STING (WT); assay type: binding; conditions: biotinylated STING on streptavidin chip, 8° C.
Method: Biophysical experiments were performed with three different recombinant human STING protein variants designated according to allelic nomenclature of Yi et al., (2013). Codon optimized DNA sequences (for expression in Escherichia coli) encoding amino acid residues 149 to 345 (Swiss Prot Q86WV6) of human STING (WT), human STING (HAQ) and human STING (R232H) were synthesised by GenScript USA Inc (Piscataway, New Jersey, USA). These were ligated into a modified pET43a E. coli expression vector designed to encode N-terminal His tag followed by tobacco etch virus protease (TEV) cleavage site and a STING gene sequence. The resulting protein sequences for the three allelic variants are listed below:
Binding interactions of ligands with STING proteins were quantified using Surface Plasmon Resonance (SPR) with a minimally biotinylated STING protein immobilized on a streptavidin chip surface. […] Minimal biotinylation of purified huSTING proteins was performed using a previously described methodology (Chhabra 2012). Briefly, approximately 20 nmol of recombinant STING protein in 1×TBS buffer (25 mM Tris-HCl, pH 7.5, 150 mM NaCl, 5 mM DTT) was mixed with of EZ-Link™ Sulfo-NHS-LC-LC-Biotin (Thermofisher Scientific, cat #21338) at a molar ratio of 1 to 0.6 and incubated on ice for 2 hours. To remove any unreacted biotin reagent, protein/biotin mixture was passed through a Superdex 75 (10/300 GL) column equilibrated with 10 mM HEPES, pH7.4, 150 mM NaCl, 5 mM DTT, 5%[v/v] glycerol. A protein peak containing biotinylated huSTING protein was collected and stored in aliquots at −80° C.
Streptavidin was simultaneously immobilized in all four channels of a CM5 sensor chip docked in a Biacore instrument (either Biacore S200 or Biacore T200, GE Healthcare) as described previously (Zender 2013). Minimally biotinylated STING protein was captured onto a streptavidin coated chip surface at 8° C. in SPR binding buffer (50 mM HEPES, pH 7.4, 150 mM NaCl, 2%[v/v] DMSO) by gradually injecting in a single channel at a constant flow-rate of 2 μL/min until desired capture level was achieved, typically 3000 to 7000 RU (1 RU=1 pg/mm^2).
All binding experiments were performed at 8° C. in SPR binding buffer. To determine binding affinity, compound interaction with immobilized STING protein was analysed using dose-response experiments. Fresh 10 mM DMSO solutions of compound were diluted directly into SPR binding buffer typically to a concentration of 50 μM and then further diluted 2-fold or 3-fold aiming for either a 5- or 7-point concentration series range. Each ligand concentration series was injected at a constant flow rate of 60 μL/min with a 90 second association and a 180 second dissociation time. These were modified for compounds with longer residence times, so that curves could reach steady-state, or so that compound would be fully dissociated before the subsequent injection.
Scrubber 2 (www.biologic.com.au) was utilized for data processing, where signals were referenced against the blank surface (streptavidin+D-biotin) and further corrected for DMSO refractive index change and then “double-referenced” using a buffer-blank injection (Papalia 2006). Responses were fitted to either a 1:1 steady-state affinity model or a 1:1 kinetic model (that included a mass-transport component), available within Scrubber.

human STING (WT) [2] = target: T1, human STING (WT); test: Differential scanning fluorimetry (DSF), huSTING (WT); assay type: binding; conditions: 2 μM protein, compound 100 μM, Tm with ligand minus Tm of protein alone (1% DMSO); for ΔTm at 100 µM: read-out: DSF huSTING (WT) ΔTm (° C.)
Method: Biophysical experiments were performed with three different recombinant human STING protein variants designated according to allelic nomenclature of Yi et al., (2013). […] These were ligated into a modified pET43a E. coli expression vector designed to encode N-terminal His tag followed by tobacco etch virus protease (TEV) cleavage site and a STING gene sequence. The resulting protein sequences for the three allelic variants are listed below: […] Cultures were then cooled to 16° C. and protein expression induced by the addition of isopropyl β-D-1-thiogalactopyranoside to a final concentration of 0.5 mM and the cultures shaken overnight for further 16 hours. Following expression, cell cultures were centrifuged at 5000×g for 20 min and cell pellet stored frozen at −70° C. Protein purification was initiated by thawing the cell pellet in Lysis buffer (25 mM Tris-HCl pH 8.0, 300 mM NaCl, 5 mM DTT, 2 mM MgCl2, 10 mM imidazole, 0.5 mg/ml lysozyme, benzonase endonuclease [EMD Millipore], 1 mM PMSF, complete protease inhibitor tablets EDTA-free [Roche]) using a ratio of 7 ml of buffer per 1 g of cells. Cells were further lysed by 3 passes through an ice cooled Avestin C5 cell crusher and then centrifuged at 48,000×g at 4° C. […] The IMAC column was then sequentially washed with IMAC Wash buffer 1 and IMAC Wash buffer 2 (25 mM Tris-HCl pH 8.0, 300 mM NaCl, 5 mM DTT, 20 mM Imidazole) and bound His-TEV-hSTING protein eluted with IMAC Elution buffer (25 mM Tris-HCl pH 8.0, 300 mM NaCl, 5 mM DTT, 250 mM Imidazole). […] Differential scanning fluorimetry (DSF) is a rapid screening method for identifying low-molecular-weight ligands that bind and, in doing so, stabilize (or sometimes destabilize) purified proteins (Niesen 2007). DSF monitors thermal unfolding of protein in the presence of a fluorescent dye and is typically performed using a real-time PCR instrument. The temperature at which a protein unfolds is measured by an increase in the fluorescence of a dye with affinity for hydrophobic parts of the protein that are gradually being exposed during unfolding. The fluorescence of the dye is quenched in aqueous environments, but when the dye associates with hydrophobic sites on unfolded protein, its fluorescence increases. The fluorescence intensity is plotted as a function of the temperature, generating a sigmoidal curve that can be described by a two-state transition. The inflection point of the transition curve (Tm) is calculated using simple equations such as that of Boltzmann. Thermal stability of STING protein (with and without bound ligand) was measured using previously described methodology (Seabrook & Newman, 2013), with samples tested in triplicate using 96-well PCR microplate (AB Gene, ABGAB-0600/W). […] Sealed plates were placed into Bio-Rad CFX96/C1000 thermocycler and FRET scanning mode (λ^excitation of 490 nm and reads at a λ^emission of 570 nm). Melting curves were recorded from 20° C. to 100° C. in 0.5° C. increments every 30 seconds with a read at each increment. Data were analysed using “Meltdown analysis” protocol described by Rosa (2015).

T1 sequence (Q86WV6 other isoform, or with tags, fused parts or gaps, stated change not applied): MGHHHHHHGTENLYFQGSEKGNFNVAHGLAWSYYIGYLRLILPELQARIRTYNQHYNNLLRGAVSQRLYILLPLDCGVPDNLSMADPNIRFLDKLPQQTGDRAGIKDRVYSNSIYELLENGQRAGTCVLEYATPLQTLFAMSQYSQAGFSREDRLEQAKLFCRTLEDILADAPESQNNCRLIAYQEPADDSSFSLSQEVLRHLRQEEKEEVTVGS

Row | SMILES | Kd (human STING (WT) [1]) [µM] | ΔTm at 100 µM (human STING (WT) [2]) [°C] | DSF huSTING (WT) ΔTm (° C.) (human STING (WT) [2]) [°C]
1 | COc1c(C(N)=O)ccc2c1nc(-c1ccccc1C(=O)O)n2CCn1c(-c2ccccc2C(=O)O)nc2c(OC)c(C(N)=O)ccc21 [Example 4, 2,2′-(Ethane-1,2-diylbis(5-carbamoyl-4-methoxy-1H-benzo[d]imidazole-1,2-diyl))dibenzoic acid] | > 10 | 3.28 | –
2 | COc1c(C(N)=O)ccc2c1nc(-c1c(Cl)cccc1C(=O)O)n2CCn1c(-c2c(Cl)cccc2C(=O)O)nc2c(OC)c(C(N)=O)ccc21 (racemic) [Example 22, 2,2′-(Ethane-1,2-diylbis(5-carbamoyl-4-methoxy-1H-benzo[d]imidazole-1,2-diyl))bis(3-chlorobenzoic acid)] | 0.077 | 17 | –
3 | COc1c(C(N)=O)ccc2c1nc(-c1ccc(C(F)(F)F)cc1C(=O)O)n2CCn1c(-c2ccc(C(F)(F)F)cc2C(=O)O)nc2c(OC)c(C(N)=O)ccc21 [Example 38, 6,6′-(Ethane-1,2-diylbis(5-carbamoyl-4-methoxy-1H-benzo[d]imidazole-1,2-diyl))bis(3-(trifluoromethyl)benzoic acid)] | > 100 | 0.38 | –
4 | COc1c(C(N)=O)ccc2c1nc(-c1ccc(Cl)cc1C(=O)O)n2C/C=C/Cn1c(-c2ccc(Cl)cc2C(=O)O)nc2c(OC)c(C(N)=O)ccc21 [Example 34, (E)-6,6′-(But-2-ene-1,4-diylbis(5-carbamoyl-4-methoxy-1H-benzo[d]imidazole-1,2-diyl))bis(3-chlorobenzoic acid)] | 74 | -2.39 | –
5 | COc1c(C(N)=O)ccc2c1nc(-c1ccc(Cl)cc1C(=O)O)n2CCCn1c(-c2ccc(Cl)cc2C(=O)O)nc2c(OC)c(C(N)=O)ccc21 [Example 35, 6,6′-(Propane-1,3-diylbis(5-carbamoyl-4-methoxy-1H-benzo[d]imidazole-1,2-diyl))bis(3-chlorobenzoic acid)] | > 100 | -2.51 | –
6 | NC(=O)c1ccc2c(c1)nc(-c1ccccc1-c1nn[nH]n1)n2CCn1c(-c2ccccc2-c2nnn[nH]2)nc2cc(C(N)=O)ccc21 [Example 5, 2-(2-(1H-Tetrazol-5-yl)phenyl)-1-(2-(2-(2-(2H-tetrazol-5-yl)phenyl)-5-carbamoyl-1H-benzo[d]imidazol-1-yl)ethyl)-1H-benzo[d]imidazole-5-carboxamide] | 30 | 1.33 | –
7 | COc1c(C(N)=O)ccc2c1nc(-c1cc(Cl)ccc1-c1nn[nH]n1)n2CCn1c(-c2cc(Cl)ccc2-c2nn[nH]n2)nc2c(OC)c(C(N)=O)ccc21 [Example 42, 1,1′-(Ethane-1,2-diyl)bis(2-(5-chloro-2-(2H-tetrazol-5-yl)phenyl)-4-methoxy-1H-benzo[d]imidazole-5-carboxamide)] | 139 | 2.04 | –
8 | COc1c(C(N)=O)cc(F)c2c1nc(-c1c(F)cc(F)cc1C(=O)O)n2CCn1c(-c2c(F)cc(F)cc2C(=O)O)nc2c(OC)c(C(N)=O)cc(F)c21 [Example 18, 2,2′-(Ethane-1,2-diylbis(5-carbamoyl-7-fluoro-4-methoxy-1H-benzo[d]imidazole-1,2-diyl))bis(3,5-difluorobenzoic acid)] | 2.01 | 2.4 | –
9 | COc1c(C(N)=O)ccc2c1nc(-c1ccc(Cl)cc1-c1noc(=O)[nH]1)n2CCn1c(-c2ccc(Cl)cc2-c2noc(=O)[nH]2)nc2c(OC)c(C(N)=O)ccc21 [Example 32, 1,1′-(Ethane-1,2-diyl)bis(2-(4-chloro-2-(5-oxo-4,5-dihydro-1,2,4-oxadiazol-3-yl)phenyl)-4-methoxy-1H-benzo[d]imidazole-5-carboxamide)] | > 80 | 0.51 | –
10 | COc1c(C(N)=O)ccc2c1nc(-c1c(F)cccc1C(=O)O)n2CCn1c(-c2c(F)cccc2C(=O)O)nc2c(OC)c(C(N)=O)ccc21 [Example 10, 2,2′-(Ethane-1,2-diylbis(5-carbamoyl-4-methoxy-1H-benzo[d]imidazole-1,2-diyl))bis(3-fluorobenzoic acid)] | 5.86 | 9.63 | –
11 | COc1ccc(-c2nc3c(OC)c(C(N)=O)ccc3n2CCn2c(-c3ccc(OC)cc3C(=O)O)nc3c(OC)c(C(N)=O)ccc32)c(C(=O)O)c1 [Example 41, 6,6′-(Ethane-1,2-diylbis(5-carbamoyl-4-methoxy-1H-benzo[d]imidazole-1,2-diyl))bis(3-methoxybenzoic acid)] | 200 | 1.09 | –
12 | COc1c(C(N)=O)cc(F)c2c1nc(-c1ccc(Cl)cc1C(=O)O)n2CCn1c(-c2ccc(Cl)cc2C(=O)O)nc2c(OC)c(C(N)=O)cc(F)c21 [Example 20, 6,6′-(Ethane-1,2-diylbis(5-carbamoyl-7-fluoro-4-methoxy-1H-benzo[d]imidazole-1,2-diyl))bis(3-chlorobenzoic acid)] | 96 | -3 | –
13 | COc1c(C(N)=O)ccc2c1nc(-c1c(I)cccc1C(=O)O)n2CCn1c(-c2c(I)cccc2C(=O)O)nc2c(OC)c(C(N)=O)ccc21 (single isomer, unassigned) [Example 19.1, 2,2′-(Ethane-1,2-diylbis(5-carbamoyl-4-methoxy-1H-benzo[d]imidazole-1,2-diyl))bis(3-iodobenzoic acid)] | 0.034 | – | 19.29
14 | COc1c(C(N)=O)ccc2c1nc(-c1c(F)cccc1-c1n[nH]c(=O)o1)n2CCn1c(-c2c(F)cccc2-c2n[nH]c(=O)o2)nc2c(OC)c(C(N)=O)ccc21 [Example 49, 1,1′-(Ethane-1,2-diyl)bis(2-(2-fluoro-6-(5-oxo-4,5-dihydro-1,3,4-oxadiazol-2-yl)phenyl)-4-methoxy-1H-benzo[d]imidazole-5-carboxamide)] | 0.755 | 10.2 | –

Source: patent US12415785B2, “Compound modulators of sting” (CTXT PTY LTD, priority 2019, dated 2025)
